Laboratory results reported in article PMC10354055, “An optimized Nurr1 agonist provides disease-modifying effects in Parkinson’s disease models” (Nature Communications, 2023).
Several values for one entry are separate records, joined by “and”; a condition that tells them apart may be missing. Identical values can stand only once. Like-named read-outs stand apart in the source and are kept apart here.

Legend:
[1] = tested on: N27-A cells; conditions: for LDH release (%): Fig. 2b, MPP+, CQ 100 µM, 4A7C-301 1 µM; for MPP+-induced cytotoxicity (in words): N27-A and MN9D cells, dose-dependent
Method: SK-N-BE(2)C human neuroblastoma, BV2 mouse microglia (ATCC), HeLa and MN9D cell lines were cultured in Dulbecco’s Modified Eagle Medium (DMEM) supplemented with 10% fetal bovine serum (FBS) and 100 U /ml penicillin and 100 μg /ml streptomycin. The murine MN9D dopaminergic cell line was kindly provided by Drs. Michael Zigmond and Juliann Jaumotte from the University of Pittsburgh. The N27-A rat dopaminergic cell line was kindly provided by Dr. Curt Freed from the University of Colorado School of Medicine. […] For transactivity assay, SK-N-BE(2)C and N27-A cell lines were transfected with pCMV-fNurr1, pGAL-Nurr1(LBD), pGAL-Nor1(LBD) or pGAL-Nur77(LBD) and reporter construct (p4xNL3-Luc for fNurr1 or p8xUAS-Luc for LBD constructs). pRSV-β-gal was co-transfected as an internal control. Cells were lysed in a lysis buffer (25 mM Tris-phosphate (pH 7.8), 2 mM DTT, 2 mM DCTA (1,2-diaminocyclohexane-N,N,N′,N′-tetraacetic acid), 10% glycerol, and 1% Triton X-100) 24 h after transfection, followed by adding firefly luciferase substrate for luminescence detection measured by a luminometer plate reader (SpectraMax®; Molecular device). Nurr1 transactivity was normalized to β-galactosidase activity. […] For Nurr1 stability determination, MN9D cells were incubated with MPP^+ (0.5 mM) for 2, 4, 8, 16, 24, and 32 h, or were transduced with lentivirus expressing GFP only or αSyn (wild-type or A53T) then harvested 24, 48 and 72 h after transduction. For autophagolysosome (APL) formation assay, HeLa and N27-A cells were transfected with mRFP-GFP-LC3 (Addgene) using Lipofectamine 2000 (Invitrogen). The medium was changed with starvation medium (Earle’s Balanced Salt Solution; EBSS) 24 h after transfection for autophagy induction.
Cells were transfected with Nurr1 subcloned into pcDNA3.1 vector[23] for Nurr1 overexpression (OE). […] Nurr1 OE or KD by transfection was analyzed by Western blot.
Cellular oxidative stress was detected using the DCFDA Cellular ROS Assay Kit (Abcam) according to the manufacturer’s protocol. Briefly, cells seeded in black clear bottom 96 well plate were stained with DCFDA solution (20 µM) for 45 min at 37 °C. […] Cytotoxicity was determined by measuring lactate dehydrogenase (LDH) release into the culture medium using a LDH cytotoxicity detection kit (Roche)[33]. Absorbance was measured at 490 nm with a microplate reader and cytotoxicity was calculated as a percentage (%) relative to 1% TritonX-100 control. Cell viability was determined using 3-(4,5-dimethylthiazol-2-yl)-2,5-diphenyltetrazolium bromide (MTT) as previously described. Briefly, cells were incubated with 5 mg/ml of MTT (Sigma-Aldrich) solution for 3.5 h at 37 °C. MTT formazan crystals were dissolved in 10 times the volume of MTT solvent (4 mM HCl and 0.1% Nonidet P-40 in isopropanol) and the absorbance from the generated blue formazan was measured at 570 nm after 15 min incubation at room temperature. Cell viability was calculated as a percentage (%) of MTT reduction relative to vehicle control.

[2] = tested on: HeLa cells; assay: Lysosomal pH detection, LysoSensor, HeLa cells; type: cell-based; conditions: for Lysosomal pH: Supplementary Figure S7d, individual replicates
Method: Lysosomal pH was detected as previously described. Briefly, after incubation in EBSS containing BafA1 (10 nM), CQ (20 µM), or 4A7C-301 (1 µM) for 6 h, HeLa and N27-A cells were treated with LysoSensor™ Yellow/Blue DND-160 (5 µM; Life Technology) for 45 min, followed by 2 washes in HEPES buffer (Gibco). Fluorescence images at excitation/emission wavelengths of 360/460 nm and 470/525 nm were taken immediately using a 400 nm dichroic mirror (KEYENCE). The ratio of fluorescence intensities (F360/470) were measured and calculated manually using ImageJ for each cell. The average pH from measuring 5 cells from each of three wells for each treatment group in both HeLa and N27-A cells was calculated by fitting the F360/470 values to a plotted pH calibration curve with KCl/NaCl buffered from pH 3.5 to 7.0 using GraphPad Prism (Version 8.0.2).

[3] = tested on: MPTP-induced male mice; assay: Pole test, MPTP-induced PD model mice; type: in vivo, mouse; conditions: for Time to traverse: Figure 4c, MPTP-induced mice, individual animal values
Method: MPTP (Sigma-Aldrich) was intraperitoneally (i.p.) injected (30 mg/kg) for 5 days (Day 1-5). […] To test dyskinetic involuntary behavior, an L-DOPA injected group was included, which received 50 mg/kg of L-DOPA and 15 mg/kg of benserazide (Sigma-Aldrich) (i.p.) for 16 days (Day 1–16). All compounds were administered 6 h post-MPTP injection to avoid any effect of compounds on the MPTP metabolism in the brain. Motor and non-motor related behavior tests were performed on the following days as described in Fig. 4a in an assessor- and observer-blinded fashion. Pre-training and baseline setup for motor-related behaviors were performed 3 days prior to the injections. Mice were sacrificed and subjected to immunohistochemistry. Mice were housed at the Animal Care Facilities of McLean Hospital under a 12-h light/12-h dark cycle, ambient temperature and humidity. Animals were handled in accordance with McLean Hospital’s Institutional Animal Care and Use Committee (Protocol #: 2015N000002) and followed National Institutes of Health guidelines.
Mice were trained to descend a vertical metal rod wrapped with rough tape (80 cm high, 12 mm diameter) once per day for 2 days, and then the baseline was measured before the pole test (3 days before the MPTP injection or the first pole test at week 2). Mice were placed head-upward on the pole and total descent time was recorded.

Row | SMILES | LDH release (%) ([1]; Control) | LDH release (%) ([1]; Nurr1 KD) | LDH release (%) ([1]; Nurr1 OE) | MPP+-induced cytotoxicity (in words) [1] | lysosomal pH (in words) ([2]; HeLa, BafA1 10 nM, CQ 20 µM, 4A7C-301 1 µM) | Lysosomal pH [2] | Time to traverse [3] | concentration of maximal efficiency, times lower than CQ ([1]; N27-A cells, MPP+-induced cytotoxicity) | motor function, pole test (in words) ([3]; CQ 40, 4A7C-301 5, L-DOPA 50 mg/kg/day, i.p., 16 days)
1 | CCN(CC)CCCC(C)Nc1ccnc2cc(Cl)ccc12 (stereo not drawn) [CQ, chloroquine] | 38.0191% and 38.0584% and 38.4906% and 38.2156% | 55.7041% and 55.6609% and 55.7395% and 55.7788% | 24% and 23.9568% and 23.9529% and 23.9254% | significantly decreased | significantly increased | 5.589 and 4.742 and 6.013 and 6.078 and 6.11 and 5.947 and 5.068 and 6.501 and 6.208 and 6.469 and 5.524 and 5.98 and 6.534 and 5.556 | 6.3 s and 5.45 s and 6.58 s and 7.09 s and 8.95 s and 7.99 s and 7.69 s and 9.73 s and 9.95 s | – | –
2 | CCN1CCN(c2cc(N3CCN(CC)CC3)nc(NCCNc3ccnc4cc(Cl)ccc34)n2)CC1 [4A7C-301, N^1-(4,6-bis(4-ethylpiperazin-1-yl)pyrimidin-2-yl)-N^2-(7-chloroquinolin-4-yl)ethane-1,2-diamine] | 36.8915% and 36.4082% and 36.6047% and 36.8443% | 55.7866% and 55.7395% and 55.4251% and 55.8102% | 22.7388% and 23.725% and 22.6956% and 22.8802% | significantly decreased | – | 4.318 and 4.4486 and 4.774 and 4.612 and 4.807 and 4.905 and 4.677 and 3.797 and 4.742 and 4.872 and 3.764 and 3.96 and 3.927 and 3.536 | 9.46 s and 8.08 s and 8.64 s and 7.97 s and 6.34 s and 6.11 s and 6.58 s and 5.5 s and 7.12 s | ~ 20 times | significantly rescued
